We go through one compound from patent US10906910B2, “Substituted bicyclic pyrimidine compounds with tubulin and multiple receptor inhibition” (Duquesne University of the Holy Spirit, priority 2014, dated 2021).

Common to all, as to format: cell-based
Assay [1] relates to SF-539. The experiment in a line: NCI 60 panel, CNS Cancer SF-539. As to conditions: Homo sapiens, read-out: Tumor cell inhibitory activity (NCI) GI50.
Assay [2] deals with SF-268. The assay is described as follows: NCI 60 panel, CNS Cancer SF-268. As to conditions: Homo sapiens, read-out: Tumor cell inhibitory activity (NCI) GI50.
Assay [3] deals with wild type HeLa cells. The assay is described as follows: HeLa cytotoxicity, wild type. The note with it: Homo sapiens.
For assay [4], the system named is SK-MEL-2. The experiment in a line: NCI 60 panel, Melanoma SK-MEL-2. The note with it: Homo sapiens, read-out: Tumor cell inhibitory activity (NCI) GI50.
The subject of assay [5] is U251. The experiment in a line: NCI 60 panel, CNS Cancer U251. As to conditions: Homo sapiens, U-251, read-out: Tumor cell inhibitory activity (NCI) GI50.
Assay [6] deals with COLO 205. The assay is described as follows: NCI 60 panel, Colon Cancer COLO 205. As to conditions: Homo sapiens, read-out: Tumor cell inhibitory activity (NCI) GI50.
In assay [7] the test system is HCT-15. The experiment in a line: NCI 60 panel, Colon Cancer HCT-15. As to conditions: Homo sapiens, read-out: Tumor cell inhibitory activity (NCI) GI50.
For assay [8], the system named is UACC-257. The experiment in a line: NCI 60 panel, Melanoma UACC-257. The note with it: Homo sapiens, read-out: Tumor cell inhibitory activity (NCI) GI50.
Assay [9] concerns A431 cells. The assay is described as follows: A431 cytotoxicity. As to conditions: Homo sapiens, A-431.
In assay [10] the test system is SN12C. The assay is described as follows: NCI 60 panel, Renal Cancer SN12C. As to conditions: Homo sapiens, read-out: Tumor cell inhibitory activity (NCI) GI50.
For assay [11], the system named is NCI-H23. The experiment in a line: NCI 60 panel, NSCLC NCI-H23. The note with it: Homo sapiens, read-out: Tumor cell inhibitory activity (NCI) GI50.
The test system of assay [12] is M14. The experiment in a line: NCI 60 panel, Melanoma M14. The note with it: Homo sapiens, read-out: Tumor cell inhibitory activity (NCI) GI50.
For assay [13], the system named is NCI/ADR-RES. The experiment in a line: NCI 60 panel, Ovarian cancer NCI/ADR-RES. As to conditions: Homo sapiens, read-out: Tumor cell inhibitory activity (NCI) GI50.
In assay [14] the test system is HS 578T. The experiment in a line: NCI 60 panel, Breast Cancer HS 578T. The note with it: Homo sapiens, read-out: Tumor cell inhibitory activity (NCI) GI50.

In general, GI50 refers to the concentration giving 50% growth inhibition. By IC50 is commonly meant the concentration that gives 50% inhibition. A low value points to inhibition by little substance. On to `COc1ccc(N(C)c2nc(C)nc3c(Cc4ccccc4)cn(C)c23)cc1` [Compound 4, 7-Benzyl-N-(4-methoxyphenyl)-N,2,5-trimethyl-5H-pyrrolo[3,2-d]pyrimidin-4-amine], for which the GI50 in [1] was 25.4 nM; in assay [2] it was 350 nM; in assay [4] it was 28.6 nM; in assay [5], 44.3 nM; in assay [6], 26.3 nM; in [7], 38.1 nM. Further, the GI50 came out at 78.2 nM in [8]; 88.7 nM in assay [10]; 45.8 nM in assay [11]; 29.5 nM in assay [12]; 32.8 nM in [13]; 62.3 nM in [14]. For the same compound, the results for the IC50 in assay [3] and in [9] were 14 ± 2 nM and 1.2 nM, respectively.
